# Biological target: T1, CD73 activity in MDA-MB-231-GFP cells (Homo sapiens, UniProt P21589)
# T1 construct: endogenous in cells; host or cells: MDA-MB-231-GFP cells
# T1 sequence (P21589 27-549): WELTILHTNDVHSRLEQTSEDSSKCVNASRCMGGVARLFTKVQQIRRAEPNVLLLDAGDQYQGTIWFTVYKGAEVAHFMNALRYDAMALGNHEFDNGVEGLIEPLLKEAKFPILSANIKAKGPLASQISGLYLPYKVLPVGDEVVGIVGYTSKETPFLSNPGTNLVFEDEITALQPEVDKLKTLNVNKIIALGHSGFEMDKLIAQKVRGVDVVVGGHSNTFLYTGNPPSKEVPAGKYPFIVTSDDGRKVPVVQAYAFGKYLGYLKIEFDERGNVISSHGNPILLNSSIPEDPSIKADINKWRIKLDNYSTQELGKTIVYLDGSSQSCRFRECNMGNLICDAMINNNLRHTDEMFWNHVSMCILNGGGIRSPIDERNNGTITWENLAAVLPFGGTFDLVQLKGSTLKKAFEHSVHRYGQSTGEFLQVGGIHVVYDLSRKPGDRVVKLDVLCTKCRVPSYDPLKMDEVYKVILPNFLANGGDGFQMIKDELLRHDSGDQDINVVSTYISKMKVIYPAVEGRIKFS
# Test: MDA-MB-231 Cell Based CD73 Activity Assay (DMEM)
# Settings: 3000 cells per well, DMEM medium with 10% human plasma, overnight compound treatment, AMP 200 uM
row,SMILES,EC50
1,"O=c1[nH]cc(-c2cc([C@H]3C[C@@H]3c3ccc(OC(F)(F)F)cn3)c3ncc(F)n3n2)c(=O)[nH]1 (racemic) [Example 374, 5-(3-fluoro-8-((2S,2S)-2-(5-(trifluoromethoxy)pyridin-2-yl)cyclopropyl)imidazo[1,2-b]pyridazin-6-yl)pyrimidine-2,4(1H,3H)-dione]",13.8 nM
2,"N#Cc1ccc([C@H]2C[C@@H]2c2cc(-c3c[nH]c(=O)[nH]c3=O)nn3ccnc23)c(F)c1 (racemic) [Example 407, 4-((2S,2S)-2-(6-(2,4-dioxo-1,2,3,4-tetrahydropyrimidin-5-yl)imidazo[1,2-b]pyridazin-8-yl)cyclopropyl)-3-fluorobenzonitrile]",14.7 nM
3,"N#Cc1cccc([C@H]2C[C@@H]2c2cc(-c3c[nH]c(=O)[nH]c3=O)nn3ccnc23)c1F (racemic) [Example 408, 3-((1S,2S)-2-(6-(2,4-dioxo-1,2,3,4-tetrahydropyrimidin-5-yl)imidazo[1,2-b]pyridazin-8-yl)cyclopropyl)-2-fluorobenzonitrile]",7.44 nM
4,"N#Cc1ccc([C@H]2C[C@@H]2c2cc(-c3c[nH]c(=O)[nH]c3=O)nn3ccnc23)cc1OC(F)(F)F (racemic) [Example 413, 4-((2S,2S)-2-(6-(2,4-dioxo-1,2,3,4-tetrahydropyrimidin-5-yl)imidazo[1,2-b]pyridazin-8-yl)cyclopropyl)-2-(trifluoromethoxy)benzonitrile]",34.6 nM
5,"N#Cc1cc([C@H]2C[C@@H]2c2cc(-c3c[nH]c(=O)[nH]c3=O)nn3ccnc23)ccc1OC(F)(F)F (racemic) [Example 414, 5-((2S,2S)-2-(6-(2,4-dioxo-1,2,3,4-tetrahydropyrimidin-5-yl)imidazo[1,2-b]pyridazin-8-yl)cyclopropyl)-2-(trifluoromethoxy)benzonitrile]",43.8 nM
6,"O=c1[nH]cc(-c2cc(N3CC(Oc4ccc(C(F)(F)F)cn4)C(F)(F)C3)c3ncnn3n2)c(=O)[nH]1 (racemic) [Example 432, 5-(8-(3,3-difluoro-4-((5-(trifluoromethyl)pyridin-2-yl)oxy)pyrrolidin-1-yl)-[1,2,4]triazolo[1,5-b]pyridazin-6-yl)pyrimidine-2,4(1H,3H)-dione]",2.58 nM
7,"O=c1[nH]cc(-c2cc(N3CCC(CC(F)(F)F)C3)c3nccn3n2)c(=O)[nH]1 (racemic) [Example 452, 5-(8-(3-(2,2,2-trifluoroethyl)pyrrolidin-1-yl)imidazo[1,2-b]pyridazin-6-yl)pyrimidine-2,4(1H,3H)-dione]",94.8 nM
8,"O=c1[nH]cc(-c2cc(N3CCC(CC(F)F)C3)c3nccn3n2)c(=O)[nH]1 (racemic) [Example 453, 5-(8-(3-(2,2-difluoroethyl)pyrrolidin-1-yl)imidazo[1,2-b]pyridazin-6-yl)pyrimidine-2,4(1H,3H)-dione]",112 nM
9,"O=c1[nH]cc(-c2cc([C@H]3C[C@@H]3c3nc4ccccc4[nH]3)c3nccn3n2)c(=O)[nH]1 (racemic) [Example 461, 5-(8-((1S,2S)-2-(1H-benzo[d]imidazol-2-yl)cyclopropyl)imidazo[1,2-b]pyridazin-6-yl)pyrimidine-2,4(1H,3H)-dione]",11.6 nM
10,"N#Cc1ccc(F)c([C@H]2C[C@@H]2c2cc(-c3c[nH]c(=O)[nH]c3=O)nn3ccnc23)c1 (racemic) [Example 466, 3-((2S,2S)-2-(6-(2,4-dioxo-1,2,3,4-tetrahydropyrimidin-5-yl)imidazo[1,2-b]pyridazin-8-yl)cyclopropyl)-4-fluorobenzonitrile]",20 nM
11,"O=c1[nH]cc(-c2cc([C@H]3C[C@@H]3c3cc4c(cn3)cnn4CC(F)(F)F)c3ncc(Cl)n3n2)c(=O)[nH]1 (racemic) [Example 471, 5-(3-chloro-8-((2S,2S)-2-(1-(2,2,2-trifluoroethyl)-1H-pyrazolo[4,3-c]pyridin-6-yl)cyclopropyl)imidazo[1,2-b]pyridazin-6-yl)pyrimidine-2,4(1H,3H)-dione]",0.24 nM
12,"CC1(C)C(=O)N(CC(F)(F)F)c2cc([C@H]3C[C@@H]3c3cc(-c4c[nH]c(=O)[nH]c4=O)nn4ccnc34)ncc21 (racemic) [Example 718, 5-[8-[(1S,2S)-2-[3,3-dimethyl-2-oxo-1-(2,2,2-trifluoroethyl)pyrrolo[3,2-c]pyridin-6-yl]cyclopropyl]imidazo[1,2-b]pyridazin-6-yl]-1H-pyrimidine-2,4-dione]",0.33 nM
13,"O=c1[nH]cc(-c2cc([C@H]3C[C@@H]3c3cc(OCC(F)(F)F)c4ncccc4c3)c3nccn3n2)c(=O)[nH]1 (racemic) [Example 732, 5-(8-((2S,2S)-2-(8-(2,2,2-trifluoroethoxy)quinolin-6-yl)cyclopropyl)imidazo[1,2-b]pyridazin-6-yl)pyrimidine-2,4(1H,3H)-dione]",2.52 nM
14,"O=C1N(CC2(F)CC2)c2cc([C@H]3C[C@@H]3c3cc(-c4c[nH]c(=O)[nH]c4=O)nn4c(F)cnc34)ccc2C12CC2 (racemic) [Example 735, 5-(3-fluoro-8-((2S,2S)-2-(1′-((1-fluorocyclopropyl)methyl)-2′-oxospiro[cyclopropane-1,3′-indolin]-6′-yl)cyclopropyl)imidazo[1,2-b]pyridazin-6-yl)pyrimidine-2,4(1H,3H)-dione]",0.38 nM
15,"O=C1N(CC(F)(F)F)c2cc([C@H]3C[C@@H]3c3cc(-c4c[nH]c(=O)[nH]c4=O)nn4ccnc34)c(F)cc2C12CC2 (racemic) [Example 748, 5-(8-((2S,2S)-2-(5′-fluoro-2′-oxo-1′-(2,2,2-trifluoroethyl)spiro[cyclopropane-1,3′-indolin]-6′-yl)cyclopropyl)imidazo[1,2-b]pyridazin-6-yl)pyrimidine-2,4(1H,3H)-dione]",1.76 nM
16,"O=C(c1ccc([C@H]2C[C@@H]2c2cc(-c3c[nH]c(=O)[nH]c3=O)nn3c(F)cnc23)cc1)N1CC(F)(F)C1 (single isomer, unassigned) [Example 313]",9.78 nM
17,"O=c1[nH]cc(-c2cc([C@H]3C[C@@H]3c3cnn(C(F)F)c3)c3ncc(F)n3n2)c(=O)[nH]1 (single isomer, unassigned) [Example 371]",17.9 nM
18,"O=C1N(CC(F)(F)F)c2cc([C@H]3C[C@@H]3c3cc(-c4c[nH]c(=O)[nH]c4=O)nn4ccnc34)ccc2C12CC2 (single isomer, unassigned) [Example 391]",0.1 nM
19,"O=C1N(CC(F)(F)F)c2cc([C@H]3C[C@@H]3c3cc(-c4c[nH]c(=O)[nH]c4=O)nn4c(Cl)cnc34)ccc2C12CC2 (single isomer, unassigned) [Example 740]",0.28 nM

# Results, then the compound that gave them:
row,EC50,SMILES
1,9.23 nM,"O=c1[nH]cc(-c2cc([C@H]3C[C@@H]3c3ccc(OC(F)(F)F)cn3)c3nccn3n2)c(=O)[nH]1 (racemic) [Example 372, 5-(8-((1S,2S)-2-(5-(trifluoromethoxy)pyridin-2-yl)cyclopropyl)imidazo[1,2-b]pyridazin-6-yl)pyrimidine-2,4(1H,3H)-dione]"
2,19.3 nM,"O=c1[nH]cc(-c2cc([C@H]3C[C@@H]3c3ccc(OC(F)(F)F)nc3)c3nccn3n2)c(=O)[nH]1 (racemic) [Example 376, 5-(8-((2S,2S)-2-(6-(trifluoromethoxy)pyridin-3-yl)cyclopropyl)imidazo[1,2-b]pyridazin-6-yl)pyrimidine-2,4(1H,3H)-dione]"
3,22.6 nM,"O=c1[nH]cc(-c2cc([C@H]3C[C@@H]3c3ncc(C(F)(F)F)cn3)c3nccn3n2)c(=O)[nH]1 (racemic) [Example 377, 5-(8-((1S,2S)-2-(5-(trifluoromethyl)pyrimidin-2-yl)cyclopropyl)imidazo[1,2-b]pyridazin-6-yl)pyrimidine-2,4(1H,3H)-dione]"
4,18.9 nM,"O=c1[nH]cc(-c2cc([C@H]3C[C@@H]3c3ncc(C(F)(F)F)cn3)c3ncc(F)n3n2)c(=O)[nH]1 (racemic) [Example 378, 5-(3-fluoro-8-((1S,2S)-2-(5-(trifluoromethyl)pyrimidin-2-yl)cyclopropyl)imidazo[1,2-b]pyridazin-6-yl)pyrimidine-2,4(1H,3H)-dione]"
5,42.6 nM,"N#Cc1ccc([C@H]2C[C@@H]2c2cc(-c3c[nH]c(=O)[nH]c3=O)nn3ccnc23)cc1C(F)(F)F (racemic) [Example 411, 4-((1S,2S)-2-(6-(2,4-dioxo-1,2,3,4-tetrahydropyrimidin-5-yl)imidazo[1,2-b]pyridazin-8-yl)cyclopropyl)-2-(trifluoromethyl)benzonitrile]"
6,38.3 nM,"N#Cc1cc([C@H]2C[C@@H]2c2cc(-c3c[nH]c(=O)[nH]c3=O)nn3ccnc23)ccc1C(F)(F)F (racemic) [Example 412, 5-((2S,2S)-2-(6-(2,4-dioxo-1,2,3,4-tetrahydropyrimidin-5-yl)imidazo[1,2-b]pyridazin-8-yl)cyclopropyl)-2-(trifluoromethyl)benzonitrile]"
7,16.2 nM,"O=c1[nH]cc(-c2cc([C@H]3C[C@@H]3c3ccc(F)c(F)c3F)c3nccn3n2)c(=O)[nH]1 (racemic) [Example 464, 5-(8-((2S,2S)-2-(2,3,4-trifluorophenyl)cyclopropyl)imidazo[1,2-b]pyridazin-6-yl)pyrimidine-2,4(1H,3H)-dione]"
8,13.3 nM,"O=c1[nH]cc(-c2cc([C@H]3C[C@@H]3c3c(F)ccc(F)c3F)c3nccn3n2)c(=O)[nH]1 (racemic) [Example 468, 5-(8-((2S,2S)-2-(2,3,6-trifluorophenyl)cyclopropyl)imidazo[1,2-b]pyridazin-6-yl)pyrimidine-2,4(1H,3H)-dione]"
9,9.61 nM,"O=c1[nH]cc(-c2cc([C@H]3C[C@@H]3c3ccc(OC(F)(F)F)cn3)c3nccn3n2)c(=O)[nH]1 (single isomer, unassigned) [Example 373]"

# From US12110294B2, “CD73 compounds” (Gilead Sciences, Inc., priority 2020, dated 2024)
